Literature values in publication PMC3066546, “Development of modified nucleosides that have supremely high anti-HIV activity and low toxicity and prevent the emergence of resistant HIV mutants” (Proceedings of the Japan Academy. Series B, Physical and …, 2011).
Where two headings read alike, the source gives them in different places.

Experiments:
adenosine deaminase = tested on: adenosine deaminase; set-up: method as in PMID 563233, PMID 17548498, PMID 18487070; conditions: conditions where 4′EdA was completely deaminated in 60 min
HIV-1 MDR = tested on: HIV-1 MDR; set-up: method as in PMID 563233, PMID 17548498, PMID 18487070; conditions: Table 6
[1] = set-up: method as in PMID 563233, PMID 17548498, PMID 18487070; conditions: 120 min, acidic conditions of gastric juices (pH 1.06), 24 ℃
HIV-1wild = tested on: HIV-1wild; set-up: method as in PMID 18487070; conditions: Table 7; read-out: Anti-HIV activity (MAGI assay, µg) HIV-1wild
[2] = Table 6
HIV-1 M184V = tested on: HIV-1 M184V; set-up: method as in PMID 563233, PMID 17548498, PMID 18487070; conditions: Table 6
HIV [3] = conditions: 24 h after removal of extracellular drug, MT4 cells and MAGI cells cultured with 0.1 µM
HIV-1 Wild-type = tested on: HIV-1 Wild-type; set-up: method as in PMID 563233, PMID 17548498, PMID 18487070; conditions: Table 6
HIV-1MDR = tested on: HIV-1MDR; set-up: method as in PMID 18487070; conditions: Table 7; read-out: Anti-HIV activity (MAGI assay, µg) HIV-1MDR
[4] = target: human mitochondrion DNA polymerase (DNA polymerase γ); set-up: method as in PMID 17548498, PMID 18487070; conditions: read-out: EC50 to inhibit the incorporation of dATP
DNA polymerase α = conditions: read-out: EC50 against DNA polymerase α
DNA polymerase β = conditions: read-out: EC50 against DNA polymerase β
[5] = CEM cells, MT4 cells, MAGI-CCR5 cells
HIV-1M184V = tested on: HIV-1M184V; set-up: method as in PMID 18487070; conditions: Table 7; read-out: Anti-HIV activity (MAGI assay, µg) HIV-1M184V
[6] = tested on: multi-drug resistant HIV mutant
HIV [7] = tested on: HIV; set-up: method as in PMID 15456247
RT of the M184V mutant = tested on: RT of the M184V mutant; set-up: method as in PMID 15456247; conditions: 4′EddCTP compared with RT of wild-type HIV
RT of wild-type HIV = tested on: RT of wild-type HIV; set-up: method as in PMID 15456247; conditions: compared with AZTTP

## C#C[C@]1(CO)O[C@@H](n2cnc3c(N)nc(F)nc32)C[C@@H]1O [4′Ed2FA, 2′-deoxy-4′-C-ethynyl-2-fluoroadenosine]
Adenosine deaminase
  stability to adenosine deaminase: completely stable
HIV-1 MDR
  EC50: 0.15 nM
[1]
  part decomposed: 3%
HIV-1wild
  EC50: 0.2 nM
[2]
  CC50: 7500 nM
HIV-1 M184V
  EC50: 3.1 nM
ICR mice; i.v., single dosage 1 mg Kg−1, ICR mice
  Survivors/total: 8/8
ICR mice; i.v., single dosage 3 mg Kg−1, ICR mice
  Survivors/total: 8/8
ICR mice; i.v., single dosage 10 mg Kg−1, ICR mice
  Survivors/total: 8/8
ICR mice; i.v., single dosage 30 mg Kg−1, ICR mice
  Survivors/total: 8/8
ICR mice; i.v., single dosage 100 mg Kg−1, ICR mice
  Survivors/total: 8/8
ICR mice; oral or intravenous administration up to 100 mg kg−1
  acute toxicity to mice: did not show any acute toxicity
ICR mice; p.o, single dosage 1 mg Kg−1, ICR mice
  Survivors/total: 8/8
ICR mice; p.o, single dosage 3 mg Kg−1, ICR mice
  Survivors/total: 8/8
ICR mice; p.o, single dosage 10 mg Kg−1, ICR mice
  Survivors/total: 8/8
ICR mice; p.o, single dosage 30 mg Kg−1, ICR mice
  Survivors/total: 8/8
ICR mice; p.o, single dosage 100 mg Kg−1, ICR mice
  Survivors/total: 8/8
HIV [3]
  cells protected against the infection of HIV: About 50%
HIV-1 Wild-type
  EC50: 0.068 nM
HIV-1MDR
  EC50: 0.14 nM

## C#C[C@]1(COP(=O)(O)OP(=O)(O)OP(=O)(O)O)O[C@@H](n2cnc3c(N)nc(F)nc32)C[C@@H]1O [4′Ed2FATP, 2′-deoxy-4′-C-ethynyl-2-fluoroadenosine-5-O-triphosphate]
[4]
  EC50: 10000 nM
DNA polymerase α
  EC50: > 200000 nM
DNA polymerase β
  EC50: > 200000 nM
[5]
  intracellular half-life (T1/2): ~18 h

## C#C[C@@]1(CO)C=C[C@H](n2cc(C)c(=O)[nH]c2=O)O1 [4′Ed4T, 4′-C-ethynyl-2′,3′-didehydro-3′-deoxythymidine]
HIV-1M184V
  EC50: 17000 nM
[6]
  potency against multi-drug resistant HIV mutant compared with d4T: more potent
HIV-1wild
  EC50: 1500 nM
wild-type HIV
  potency against wild-type HIV compared with d4T: more potent
HIV-1MDR
  EC50: 1100 nM
M184V-mutant
  potency against M184V-mutant compared with d4T: a little less potent

## C#C[C@@]1(CO)CC[C@H](n2ccc(N)nc2=O)O1 [4′EddC, 4′-C-ethynyl-2′,3′-dideoxycytidine]
HIV [7]
  activity against HIV in cellular systems: inactive

## C#CC1(COP(=O)(O)OP(=O)(O)OP(=O)(O)O)CCC(n2ccc(N)nc2=O)O1 (stereo not drawn) [4′EddCTP]
RT of the M184V mutant
  activity against RT of the M184V mutant: much less active
RT of wild-type HIV
  activity against the RT of wild-type HIV: more active
